Kd data for 2 compounds are collected here from article PMC2892103 (Journal of molecular biology, 2010).

Molecules are shown by their SMILES.

In the assay the target is T1, E. coli TrmD (Escherichia coli, UniProt P0A873).
T1 sequence (P0A873 1-255): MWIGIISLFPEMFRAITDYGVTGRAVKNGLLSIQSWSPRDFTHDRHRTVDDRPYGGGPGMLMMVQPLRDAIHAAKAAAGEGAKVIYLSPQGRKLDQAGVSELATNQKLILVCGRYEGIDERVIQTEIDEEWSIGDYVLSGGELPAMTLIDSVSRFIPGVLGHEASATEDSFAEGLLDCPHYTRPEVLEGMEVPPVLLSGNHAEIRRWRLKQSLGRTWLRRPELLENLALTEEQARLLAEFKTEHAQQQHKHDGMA
Description: intrinsic tryptophan fluorescence quenching, quadratic fit. It counts as binding.

As a reminder, the Kd is the equilibrium constant for the complex coming apart. A lower Kd goes with tighter binding.

Regarding `Nc1ncnc2c1ncn2[C@@H]1O[C@H](CSCC[C@H](N)C(=O)O)[C@@H](O)[C@H]1O` [AdoHcy], binding was put at a Kd of 330 ± 40 nM.
The value for `C[S+](CC[C@H](N)C(=O)O)C[C@H]1O[C@@H](n2cnc3c(N)ncnc32)[C@H](O)[C@@H]1O` (some centres unmarked) [AdoMet] was 1100 ± 200 nM.
